Values joined by “and” are separate entries in the source; they are usually repeats but may differ in a detail not shown here. Equal values may be shown once. Read-outs that look alike come from different tables or passages of the source.
Assays:
Type in all cases: cell-based
[1] = tested on: Escherichia coli (E. coli—ATCC #8739); test: Synergy test, microtiter plate high resolution MIC assay, M9GY medium, bacterium; details: for MIC of the component acting alone (Qa or Qb with the other component at 0) / SI (synergy index) / Synergy Index (SI) = Qa/QA+Qb/QB / MIC: E. coli 8739, M9GY; for MIC: Escherichia coli, 30° C., read-out: MIC of the component acting alone (QA or QB)
Excerpt: (§1) One measure of synergism is the industrially accepted method described by Kull, F. C.; Eisman, P. C.; Sylwestrowicz, H. D. and Mayer, R. L., in Applied Microbiology 9:538-541 (1961), using the ratio determined by the formula: Qa/QA+Qb/QB=Synergy Index(“SI”) wherein: • QA=concentration of compound A (first component) in ppm, acting alone, which produced an end point (MIC of Compound A). • Qa=concentration of compound A in ppm, in the mixture, which produced an end point. • QB=concentration of compound B (second component) in ppm, acting alone, which produced an end point (MIC of Compound B). • Qb=concentration of compound B in ppm, in the mixture, which produced an end point.
(§2) When the sum of Qa/QA and Qb/QB is greater than one, antagonism is indicated. […] The lower the SI, the greater is the synergy shown by that particular mixture. The minimum inhibitory concentration (MIC) of a microbicide is the lowest concentration tested under a specific set of conditions that prevents the growth of the tested microorganisms.
(§3) Synergy tests were conducted using standard microtiter plate assays with media designed for optimal growth of the test microorganism. Minimal salt medium supplemented with 0.2% glucose and 0.1% yeast extract (M9GY medium) was used for testing bacteria; Potato Dextrose Broth (PDB medium) was used for testing yeast and mold. In this method, a wide range of combinations of microbicides and other personal care raw materials was tested by conducting high resolution MIC assays in the presence of various concentrations of CMIT/MIT, MIT, or BIT. High resolution MICs were determined by adding varying amounts of microbicide to one column of a microtitre plate and doing subsequent […] dilutions using an automated liquid handling system to obtain a series of endpoints ranging from 2 ppm to 10,000 ppm active ingredient.
(§4) The synergy of the combinations of the present invention was determined against a bacterium, Escherichia coli (E. coli—ATCC #8739), a yeast, Candida albicans (C. albicans—ATCC 10231), and a mold, Aspergillus niger (A. niger—ATCC 16404). The bacteria were used at a concentration of about 5×10^6 bacteria per mL and the yeast and mold at 5×10^5 fungi per mL. These microorganisms are representative of natural contaminants in many consumer and industrial applications. […] (yeast and mold) or 30° C. (bacteria).

[2] = tested on: Candida albicans (C. albicans—ATCC 10231); test: Synergy test, microtiter plate high resolution MIC assay, PDB medium, yeast; details: for MIC of the component acting alone (Qa or Qb with the other component at 0) / SI (synergy index) / Synergy Index (SI) = Qa/QA+Qb/QB / MIC: C. albicans 10231, PDB; for MIC: Candida albicans, 25° C., read-out: MIC of the component acting alone (QA or QB)
Excerpt: as §1, §2, §3, §4

[3] = tested on: Aspergillus niger (A. niger—ATCC 16404); test: Synergy test, microtiter plate high resolution MIC assay, PDB medium, mold; details: for MIC of the component acting alone (Qa or Qb with the other component at 0) / SI (synergy index) / Synergy Index (SI) = Qa/QA+Qb/QB / MIC: A. niger 16404, PDB; for MIC: Aspergillus niger, 25° C., read-out: MIC of the component acting alone (QA or QB)
Excerpt: as §1, §2, §3, §4

[4] = E. coli 8739 - M9GY (1 day), A = BIT, B = Caprylic acid
[5] = C. albicans 10231 - PDB (6 days), A = BIT, B = Caprylic acid
[6] = A. niger 16404 - PDB (3 days), A = BIT, B = Caprylic acid

Compound: O=c1[nH]sc2ccccc12 [BIT, 1,2-benzisothiazolin-3-one]
- MIC of the component acting alone (Qa or Qb with the other component at 0) ([1]; 1 day): 20.00 ppm
- SI (synergy index) ([1]; 1 day): 1.00
- MIC of the component acting alone (Qa or Qb with the other component at 0) ([1]; 2 days): 20.00 ppm
- SI (synergy index) ([1]; 2 days): 1.00
- SI [1, 4]: 1.00
- Qa ([1]; E. coli 8739 - M9GY (1 day), A = BIT, B = Caprylic acid, A alone where Qb = 0): 20 ppm
- MIC of the component acting alone (Qa or Qb with the other component at 0) ([2]; 1 day): 15.00 ppm
- SI (synergy index) ([2]; 1 day): 1.00
- MIC of the component acting alone (Qa or Qb with the other component at 0) ([2]; 2 days): 30.00 ppm
- SI (synergy index) ([2]; 2 days): 1.00
- MIC of the component acting alone (Qa or Qb with the other component at 0) ([2]; 6 days): 30.00 ppm and 40.00 ppm
- SI (synergy index) ([2]; 6 days): 1.00
- SI [2, 5]: 1.00
- Qa ([2]; C. albicans 10231 - PDB (6 days), A = BIT, B = Caprylic acid, A alone where Qb = 0): 20 ppm
- MIC of the component acting alone (Qa or Qb with the other component at 0) ([3]; 3 days): 50 ppm
- SI (synergy index) ([3]; 3 days): 1.00
- MIC of the component acting alone (Qa or Qb with the other component at 0) ([3]; 4 days): 50 ppm
- SI (synergy index) ([3]; 4 days): 1.00
- MIC of the component acting alone (Qa or Qb with the other component at 0) ([3]; 10 days): 100.00 ppm
- SI (synergy index) ([3]; 10 days): 1.00
- SI [3, 6]: 1.00
- Qa ([3]; A. niger 16404 - PDB (3 days), A = BIT, B = Caprylic acid, A alone where Qb = 0): 50 ppm

Compound: CCCCCCC(O)CO (centres unmarked) [Caprylyl glycol, 1,2-octanediol]
- Synergy Index (SI) = Qa/QA+Qb/QB ([1]; 2 days): 1.00
- MIC ([1]; ATCC8739, 48 h, 2 days): 2000 µg/mL
- Synergy Index (SI) = Qa/QA+Qb/QB ([2]; 1 day): 1.00
- MIC ([2]; ATCC10231, 24 h, 1 day): 3000 µg/mL
- Synergy Index (SI) = Qa/QA+Qb/QB ([3]; 3 days): 1.00
- MIC ([3]; ATCC16404, 72 h, 3 days): 3000 µg/mL

Compound: CCCCCCCC(=O)O [Caprylic acid, octanoic acid]
- Synergy Index (SI) = Qa/QA+Qb/QB ([1]; 1 day): 1.00
- Synergy Index (SI) = Qa/QA+Qb/QB ([1]; 2 days): 1.00
- SI [1, 4]: 1.00
- Qb ([1]; E. coli 8739 - M9GY (1 day), A = BIT, B = Caprylic acid, B alone where Qa = 0): 8000 ppm
- MIC ([1]; ATCC8739, 24 h, 1 day): 8000 µg/mL
- MIC ([1]; ATCC8739, 48 h, 2 days): 8000 µg/mL
- Synergy Index (SI) = Qa/QA+Qb/QB ([2]; 6 days): 1.00
- SI [2, 5]: 1.00
- Qb ([2]; C. albicans 10231 - PDB (6 days), A = BIT, B = Caprylic acid, B alone where Qa = 0): 2000 ppm
- MIC ([2]; ATCC10231, 144 h, 6 days): 2000 µg/mL
- Synergy Index (SI) = Qa/QA+Qb/QB ([3]; 3 days): 1.00
- Synergy Index (SI) = Qa/QA+Qb/QB ([3]; 10 days): 1.00
- SI [3, 6]: 1.00
- Qb ([3]; A. niger 16404 - PDB (3 days), A = BIT, B = Caprylic acid, B alone where Qa = 0): 2000 ppm
- MIC ([3]; ATCC16404, 72 h, 3 days): 2000 µg/mL
- MIC ([3]; ATCC16404, 240 h, 10 days): 2000 µg/mL
